This passage reports glass transition temperature results from the PolyMetriX glass transition set.

On to `*C(=O)NC1CCCC(*)O1` (repeat unit), for which the glass transition temperature was found to be 145.00 °C.
Compound `*C(F)(F)C(=O)NCCCCCCNS(*)(=O)=O` (repeat unit) displayed a glass transition temperature of 52.00 °C.
To `*CC#CCOC(=O)NCCCCCCNC(=O)O*` (repeat unit) belongs -45.00 °C; to `*CC(F)(F)C(F)(F)C(F)(F)C(F)(F)COC(=O)NCC(F)(F)C(F)(F)C(F)(F)C(F)(F)CNC(=O)O*` (repeat unit), 20.00 °C; to `*CC(F)(F)C(F)(F)C(F)(F)C(F)(F)COC(=O)NCCCCCCNC(=O)O*` (repeat unit), -2.00 °C.
`*CC(F)(F)C(F)(F)COC(=O)NCC(F)(F)C(F)(F)C(F)(F)C(F)(F)CNC(=O)O*` (repeat unit) had a glass transition temperature of 38.00 °C.
The value for `*CC1CCCC(CNC(=O)c2cccc(C(=O)N*)c2)C1` (repeat unit) was 180.00 °C.
To `*CCCCCCCCCCCCCCCCOC(=O)NCCCCCCCCCCNC(=O)O*` (repeat unit) belongs 34.00 °C; to `*CCCCCCCCCCCCCCNC(=O)NCCCCCCNC(=O)N*` (repeat unit), 47.00 °C; to `*CCCCCCCCCCCCNC(=O)c1ccc(C(=O)N*)c(Oc2ccccc2)c1` (repeat unit), 75.00 °C.
`*CCCCCCCCCCCCOC(=O)NCCCCCCNC(=O)O*` (repeat unit): the glass transition temperature was 36.00 °C.
To `*CCCCCCCCCCNC(=O)c1ccc(C(=O)N*)c(Oc2ccccc2)c1` (repeat unit) belongs 94.00 °C; to `*CCCCCCCCCCNC(=O)c1ccc(Cc2ccc(C(=O)N*)cc2)cc1` (repeat unit), 140.00 °C.
In turn, `*CCCCCCCCCNC(=O)N*` (repeat unit) came in with a glass transition temperature of 130.00 °C.
The value for `*CCCCCCCCCNC(=O)c1ccc(C(=O)N*)cc1` (repeat unit) was 115.00 °C; that for `*CCCCCCCNC(=O)c1ccc(C(=O)N*)cc1` (repeat unit) was 160.00 °C.
To `*CCCCCCCNC(=S)N*` (repeat unit) belongs 52.00 °C; to `*CCCCCCCOC(=O)NCCCCCCNC(=O)O*` (repeat unit), 55.00 °C.
Compound `*CCCCCCNC(=O)C(=O)N*` (repeat unit) displayed a glass transition temperature of 250.00 °C.
In the case of `*CCCCCCNC(=O)c1c(Cl)c(Cl)c(C(=O)N*)c(Cl)c1Cl` (repeat unit), the glass transition temperature is 282.00 °C.
To `*CCCCCCNC(=O)c1ccc(C(=O)N*)c(Oc2ccc(-c3ccccc3)cc2)c1` (repeat unit) belongs 112.00 °C; to `*CCCCCCNC(=O)c1ccc(C(=O)N*)c(Oc2ccc(Cl)cc2)c1` (repeat unit), 112.00 °C; to `*CCCCCCNC(=O)c1ccc(C(=O)N*)cc1` (repeat unit), 132.50 °C.
To `*CCCCCCOC(=O)NC1CCC(CC2CCC(NC(=O)OCCCCCCOc3ccc(CCc4ccc(O*)cc4)cc3)CC2)CC1` (repeat unit) belongs 40.30 °C; to `*CCCCCNC(=S)N*` (repeat unit), 55.00 °C.
To `*CCCCNC(=O)c1ccc(C(=O)N*)c(Oc2ccccc2)c1` (repeat unit) belongs 125.00 °C; to `*CCCCNC(=O)c1cccc(C(=O)N*)c1` (repeat unit), 141.00 °C.
In turn, `*CCCNC(=O)c1ccc(C(=O)NCCCO*)cc1` (repeat unit) yielded a glass transition temperature of 72.00 °C.
In turn, `*CCOC(=O)NC1CCC(CC2CCC(NC(=O)OCCOc3ccc(C4(c5ccc(O*)cc5)c5ccccc5-c5ccccc54)cc3)CC2)CC1` (repeat unit) returned a glass transition temperature of 140.00 °C.
To `*CCOC(=O)NCCCCCCCCCCNC(=O)O*` (repeat unit) belongs 60.80 °C; to `*CCOC(=O)NCCCCCCNC(=O)O*` (repeat unit), 56.00 °C.
The value for `*CCOC(=O)NCCCCCCNC(=O)OCCOc1ccc(C2(c3ccc(O*)cc3)c3ccccc3-c3ccccc32)cc1` (repeat unit) was 61.00 °C.
To `*CCOCCOCCOCCOC(=O)NCCCCCCNC(=O)O*` (repeat unit) belongs -17.00 °C; to `*NC(CCC(=O)OC)C(*)=O` (repeat unit), 0.00 °C; to `*NC(CCC(=O)OCC)C(*)=O` (repeat unit), 0.00 °C.
For `*NC(CCC(=O)OCCCCC)C(*)=O` (repeat unit), the glass transition temperature is -20.00 °C.
The value for `*NC(CCC(=O)OCCCCCC)C(*)=O` (repeat unit) was -25.00 °C; that for `*NC(CCC(=O)OCCCCCCCC)C(*)=O` (repeat unit) was -59.50 °C; that for `*NC(CCC(=O)OCc1ccccc1)C(*)=O` (repeat unit) was 17.00 °C.
The value for `*Nc1cc(NC(=O)c2cccc(C(*)=O)c2)cc(C(=O)OCCOC(=O)/C=C/c2ccc(N(C)C)cc2)c1` (repeat unit) was 186.00 °C.
To `*Nc1cc(NC(=O)c2cccc(C(*)=O)c2)cc(C(=O)OCCOc2ccc(/C=C/C(=O)c3ccccc3)cc2)c1` (repeat unit) belongs 216.00 °C.
On to `*Nc1ccc(Cc2ccc(NC(=O)NCCCCCCCCCCCCCCCCCCNC(*)=O)cc2)cc1` (repeat unit), for which the glass transition temperature stood at 48.00 °C.
To `*Nc1ccc(Cc2ccc(NC(=O)NCCCCCCCCCNC(*)=O)cc2)cc1` (repeat unit) belongs -50.00 °C; to `*OC(=O)NC1CCC(CC2CCC(NC(=O)OC3CC4CC(*)CC(C3)O4)CC2)CC1` (repeat unit), 225.00 °C; to `*Oc1ccc(/N=C/CCC/C=N/c2ccc(OC(=O)NCCCCCCNC(*)=O)cc2)cc1` (repeat unit), 72.00 °C.
To `*Oc1ccc(C(c2ccc(Oc3c(F)c(F)c(C(=O)c4c(F)c(F)c(*)c(F)c4F)c(F)c3F)cc2)(C(F)(F)F)C(F)(F)F)cc1` (repeat unit) belongs 149.00 °C; to `*Oc1ccc(C(c2ccc(Oc3ccc(C(=O)c4c(C(=O)c5ccc(*)cc5)c(-c5ccc(F)cc5)c(-c5ccc(F)cc5)c(-c5ccc(F)cc5)c4-c4ccc(F)cc4)cc3)cc2)(C(F)(F)F)C(F)(F)F)cc1` (repeat unit), 253.00 °C; to `*Oc1ccc(C2(c3ccc(Oc4ccc(C(=O)c5c(C(=O)c6ccc(*)cc6)c(-c6ccccc6)c(-c6ccc7ccccc7c6)c(-c6ccc7ccccc7c6)c5-c5ccccc5)cc4)cc3)c3ccccc3-c3ccccc32)cc1` (repeat unit), 310.00 °C.
Turning to `*Oc1ccccc1C(=O)OC(=O)c1ccccc1OC(=O)C(C)C(C)C(*)=O` (repeat unit), the glass transition temperature worked out at 45.00 °C.
The value for `*c1ccc(C(=O)NCCCCCCCCCCCCNC(=O)c2ccc(-c3nc4ccccc4nc3*)cc2)cc1` (repeat unit) was 154.00 °C; that for `*c1cccc(S(=O)(=O)NCCCCCCNS(*)(=O)=O)c1` (repeat unit) was 67.00 °C.
